Assays:
Assay in all cases: KINOMEscan
Type in all cases: binding
Conditions in all cases: read-out: Remaining enzyme activity
ADCK4 = target: T1, ADCK4 (Homo sapiens, UniProt Q96D53)
T1 construct: purchased Ambit (DiscoverX) KINOMEscan; Cerep
Procedure, shortened: (§1)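 Competition binding: DNA-tagged kinase, immobilized active-site ligand and test compound were combined, and kinase left on beads was quantified by qPCR of the DNA tag. Kinases were T7 phage fusions grown in a BL21-derived E. coli host or were expressed in HEK-293 cells. SC81458 was tested at 10 μM final.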

ALK = target: T2, ALK (Homo sapiens, UniProt Q9UM73)
T2 construct: purchased Ambit (DiscoverX) KINOMEscan; Cerep
Procedure, shortened: as §1

BMPR1b = target: T3, BMPR1b (Homo sapiens, UniProt O00238)
T3 construct: purchased Ambit (DiscoverX) KINOMEscan; Cerep
Procedure, shortened: as §1

CAMK1 = target: T4, CAMK1 (Homo sapiens, UniProt Q14012)
T4 construct: purchased Ambit (DiscoverX) KINOMEscan; Cerep
Procedure, shortened: as §1

CDK7 = target: T5, CDK7 (Homo sapiens, UniProt P50613)
T5 construct: purchased Ambit (DiscoverX) KINOMEscan; Cerep
Procedure, shortened: as §1

EGFR(E46-A750del) = target: T6, EGFR(E46-A750del) (Homo sapiens, UniProt P00533, DEL746-750)
T6 construct: purchased Ambit (DiscoverX) KINOMEscan; Cerep
Procedure, shortened: as §1

[1] = target: T7, EGFR(L747-E749del, A750P) (Homo sapiens, UniProt P00533, A750P/DEL747-749)
T7 construct: purchased Ambit (DiscoverX) KINOMEscan; Cerep
Procedure, shortened: as §1

EGFR(S752-I759del) = target: T8, EGFR(S752-I759del) (Homo sapiens, UniProt P00533, DEL752-759)
T8 construct: purchased Ambit (DiscoverX) KINOMEscan; Cerep
T8 sequence (P00533 with tags, fused parts or gaps DEL752-759 limits assumed): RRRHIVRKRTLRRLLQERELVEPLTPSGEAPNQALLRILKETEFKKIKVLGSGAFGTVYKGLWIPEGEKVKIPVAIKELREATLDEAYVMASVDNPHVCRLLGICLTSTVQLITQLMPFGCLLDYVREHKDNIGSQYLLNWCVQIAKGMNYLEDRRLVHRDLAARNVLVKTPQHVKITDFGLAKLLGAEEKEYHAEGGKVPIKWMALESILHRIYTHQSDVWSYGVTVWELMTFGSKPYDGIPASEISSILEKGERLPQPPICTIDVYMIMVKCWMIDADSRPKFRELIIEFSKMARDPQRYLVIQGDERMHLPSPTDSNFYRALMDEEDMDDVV
Procedure, shortened: as §1

EPHB1 = target: T9, EPHB1 (Homo sapiens, UniProt P54762)
T9 construct: purchased Ambit (DiscoverX) KINOMEscan; Cerep
Procedure, shortened: as §1

ERBB3 = target: T10, ERBB3 (Homo sapiens, UniProt P21860)
T10 construct: purchased Ambit (DiscoverX) KINOMEscan; Cerep
Procedure, shortened: as §1

FLT3(D835Y) = target: T11, FLT3(D835Y) (Homo sapiens, UniProt P36888, D835Y)
T11 construct: purchased Ambit (DiscoverX) KINOMEscan; Cerep
Procedure, shortened: as §1

GRK4 = target: T12, GRK4 (Homo sapiens, UniProt P32298)
T12 construct: purchased Ambit (DiscoverX) KINOMEscan; Cerep
Procedure, shortened: as §1

GRK7 = target: T13, GRK7 (Homo sapiens, UniProt Q8WTQ7)
T13 construct: purchased Ambit (DiscoverX) KINOMEscan; Cerep
Procedure, shortened: as §1

GSK3a = target: T14, GSK3a (Homo sapiens, UniProt P49840)
T14 construct: purchased Ambit (DiscoverX) KINOMEscan; Cerep
Procedure, shortened: as §1

IKK-beta = target: T15, IKK-beta (Homo sapiens, UniProt O14920)
T15 construct: purchased Ambit (DiscoverX) KINOMEscan; Cerep
Procedure, shortened: as §1

[2] = target: T16, JAK1(JH2domain-pseudokinase) (Homo sapiens, UniProt P23458)
T16 construct: JAK1(JH2domain-pseudokinase); purchased Ambit (DiscoverX) KINOMEscan; Cerep
T16 sequence (P23458 583-855 limits assumed): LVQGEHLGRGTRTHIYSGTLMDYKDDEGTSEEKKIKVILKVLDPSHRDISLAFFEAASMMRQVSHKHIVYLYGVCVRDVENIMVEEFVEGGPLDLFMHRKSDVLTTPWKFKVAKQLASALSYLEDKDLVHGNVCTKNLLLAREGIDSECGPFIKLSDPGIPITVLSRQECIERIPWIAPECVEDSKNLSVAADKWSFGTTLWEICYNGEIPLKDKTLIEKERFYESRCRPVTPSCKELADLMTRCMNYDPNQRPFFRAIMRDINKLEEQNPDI
Procedure, shortened: as §1

JNK2 = target: T17, JNK2 (Homo sapiens, UniProt P45984)
T17 construct: purchased Ambit (DiscoverX) KINOMEscan; Cerep
Procedure, shortened: as §1

LTK = target: T18, LTK (Homo sapiens, UniProt P29376)
T18 construct: purchased Ambit (DiscoverX) KINOMEscan; Cerep
T18 sequence (P29376 17-864): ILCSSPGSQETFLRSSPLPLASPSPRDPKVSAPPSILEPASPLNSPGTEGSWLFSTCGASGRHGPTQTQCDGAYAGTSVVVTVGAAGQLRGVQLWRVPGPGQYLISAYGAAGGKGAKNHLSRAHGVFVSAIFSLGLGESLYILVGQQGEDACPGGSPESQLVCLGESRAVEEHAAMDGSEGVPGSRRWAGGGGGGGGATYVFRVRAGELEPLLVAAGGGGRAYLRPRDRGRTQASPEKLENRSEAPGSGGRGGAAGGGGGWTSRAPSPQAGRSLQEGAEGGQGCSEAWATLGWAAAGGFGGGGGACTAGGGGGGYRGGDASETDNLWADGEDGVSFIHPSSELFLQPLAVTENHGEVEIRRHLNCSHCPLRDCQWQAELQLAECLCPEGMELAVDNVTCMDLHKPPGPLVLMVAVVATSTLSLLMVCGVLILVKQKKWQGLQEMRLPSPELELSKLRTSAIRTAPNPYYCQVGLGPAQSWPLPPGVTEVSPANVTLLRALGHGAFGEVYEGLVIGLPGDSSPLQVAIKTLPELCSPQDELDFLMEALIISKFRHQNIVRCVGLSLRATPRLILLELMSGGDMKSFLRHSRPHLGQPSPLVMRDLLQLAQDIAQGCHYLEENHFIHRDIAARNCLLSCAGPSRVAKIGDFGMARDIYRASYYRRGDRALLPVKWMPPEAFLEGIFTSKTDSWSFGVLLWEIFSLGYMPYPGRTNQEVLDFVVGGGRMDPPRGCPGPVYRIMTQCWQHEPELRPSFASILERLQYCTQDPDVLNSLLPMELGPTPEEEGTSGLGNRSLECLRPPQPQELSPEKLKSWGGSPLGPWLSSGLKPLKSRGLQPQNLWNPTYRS
Procedure, shortened: as §1

MAP3K1 = target: T19, MAP3K1 (Homo sapiens, UniProt Q13233)
T19 construct: purchased Ambit (DiscoverX) KINOMEscan; Cerep
Procedure, shortened: as §1

MAP3K3 = target: T20, MAP3K3 (Homo sapiens, UniProt Q99759)
T20 construct: purchased Ambit (DiscoverX) KINOMEscan; Cerep
Procedure, shortened: as §1

MRCKA = target: T21, MRCKA (Homo sapiens, UniProt Q5VT25)
T21 construct: purchased Ambit (DiscoverX) KINOMEscan; Cerep
T21 sequence (Q5VT25 whole entry): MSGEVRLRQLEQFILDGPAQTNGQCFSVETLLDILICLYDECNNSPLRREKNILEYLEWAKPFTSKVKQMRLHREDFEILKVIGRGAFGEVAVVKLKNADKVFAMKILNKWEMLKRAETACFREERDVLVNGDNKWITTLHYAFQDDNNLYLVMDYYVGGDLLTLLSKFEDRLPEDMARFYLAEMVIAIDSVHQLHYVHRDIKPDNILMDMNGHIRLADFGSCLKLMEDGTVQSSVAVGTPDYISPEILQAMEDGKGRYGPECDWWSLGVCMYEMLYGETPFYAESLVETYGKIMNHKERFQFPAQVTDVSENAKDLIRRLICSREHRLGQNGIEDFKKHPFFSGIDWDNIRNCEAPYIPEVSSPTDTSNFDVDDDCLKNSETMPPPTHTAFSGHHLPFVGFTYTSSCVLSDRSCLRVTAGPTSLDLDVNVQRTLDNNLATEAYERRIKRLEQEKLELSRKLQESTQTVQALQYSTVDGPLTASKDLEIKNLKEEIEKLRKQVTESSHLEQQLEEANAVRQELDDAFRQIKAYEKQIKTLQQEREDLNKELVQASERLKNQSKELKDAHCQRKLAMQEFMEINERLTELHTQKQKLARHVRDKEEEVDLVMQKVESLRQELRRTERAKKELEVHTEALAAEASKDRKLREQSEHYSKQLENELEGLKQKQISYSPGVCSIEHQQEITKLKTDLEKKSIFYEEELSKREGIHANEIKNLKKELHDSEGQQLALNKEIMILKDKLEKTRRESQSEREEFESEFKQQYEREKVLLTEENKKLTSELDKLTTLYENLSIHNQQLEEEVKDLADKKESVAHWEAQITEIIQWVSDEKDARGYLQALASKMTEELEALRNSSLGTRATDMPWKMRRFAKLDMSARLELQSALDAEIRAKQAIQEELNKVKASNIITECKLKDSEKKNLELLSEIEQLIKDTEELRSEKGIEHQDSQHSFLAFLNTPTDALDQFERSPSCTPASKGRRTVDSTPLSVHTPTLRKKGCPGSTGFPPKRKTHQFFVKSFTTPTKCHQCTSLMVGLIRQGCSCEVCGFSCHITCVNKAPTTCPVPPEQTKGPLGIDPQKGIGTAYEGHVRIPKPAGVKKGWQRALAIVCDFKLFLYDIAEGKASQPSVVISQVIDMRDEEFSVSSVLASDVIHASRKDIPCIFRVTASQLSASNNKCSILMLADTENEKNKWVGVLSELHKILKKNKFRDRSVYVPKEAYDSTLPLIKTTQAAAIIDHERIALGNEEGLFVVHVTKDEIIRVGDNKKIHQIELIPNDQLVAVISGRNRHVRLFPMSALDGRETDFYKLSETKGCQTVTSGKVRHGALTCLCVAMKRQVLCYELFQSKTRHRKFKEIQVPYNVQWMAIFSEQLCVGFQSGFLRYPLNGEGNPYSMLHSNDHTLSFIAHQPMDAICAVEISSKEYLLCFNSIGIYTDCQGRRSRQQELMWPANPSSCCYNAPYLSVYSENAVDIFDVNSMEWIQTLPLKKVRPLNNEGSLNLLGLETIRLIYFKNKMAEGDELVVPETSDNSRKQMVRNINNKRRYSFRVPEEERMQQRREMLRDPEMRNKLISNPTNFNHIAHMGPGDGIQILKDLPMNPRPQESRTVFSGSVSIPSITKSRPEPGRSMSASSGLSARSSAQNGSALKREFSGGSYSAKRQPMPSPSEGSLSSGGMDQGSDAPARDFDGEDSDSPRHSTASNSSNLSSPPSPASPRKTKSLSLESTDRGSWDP
Procedure, shortened: as §1

MRCKB = target: T22, MRCKB (Homo sapiens, UniProt Q9Y5S2)
T22 construct: purchased Ambit (DiscoverX) KINOMEscan; Cerep
Procedure, shortened: as §1

PIK3CA = target: T23, PIK3CA (Homo sapiens, UniProt P42336)
T23 construct: purchased Ambit (DiscoverX) KINOMEscan; Cerep
T23 sequence (P42336 whole entry): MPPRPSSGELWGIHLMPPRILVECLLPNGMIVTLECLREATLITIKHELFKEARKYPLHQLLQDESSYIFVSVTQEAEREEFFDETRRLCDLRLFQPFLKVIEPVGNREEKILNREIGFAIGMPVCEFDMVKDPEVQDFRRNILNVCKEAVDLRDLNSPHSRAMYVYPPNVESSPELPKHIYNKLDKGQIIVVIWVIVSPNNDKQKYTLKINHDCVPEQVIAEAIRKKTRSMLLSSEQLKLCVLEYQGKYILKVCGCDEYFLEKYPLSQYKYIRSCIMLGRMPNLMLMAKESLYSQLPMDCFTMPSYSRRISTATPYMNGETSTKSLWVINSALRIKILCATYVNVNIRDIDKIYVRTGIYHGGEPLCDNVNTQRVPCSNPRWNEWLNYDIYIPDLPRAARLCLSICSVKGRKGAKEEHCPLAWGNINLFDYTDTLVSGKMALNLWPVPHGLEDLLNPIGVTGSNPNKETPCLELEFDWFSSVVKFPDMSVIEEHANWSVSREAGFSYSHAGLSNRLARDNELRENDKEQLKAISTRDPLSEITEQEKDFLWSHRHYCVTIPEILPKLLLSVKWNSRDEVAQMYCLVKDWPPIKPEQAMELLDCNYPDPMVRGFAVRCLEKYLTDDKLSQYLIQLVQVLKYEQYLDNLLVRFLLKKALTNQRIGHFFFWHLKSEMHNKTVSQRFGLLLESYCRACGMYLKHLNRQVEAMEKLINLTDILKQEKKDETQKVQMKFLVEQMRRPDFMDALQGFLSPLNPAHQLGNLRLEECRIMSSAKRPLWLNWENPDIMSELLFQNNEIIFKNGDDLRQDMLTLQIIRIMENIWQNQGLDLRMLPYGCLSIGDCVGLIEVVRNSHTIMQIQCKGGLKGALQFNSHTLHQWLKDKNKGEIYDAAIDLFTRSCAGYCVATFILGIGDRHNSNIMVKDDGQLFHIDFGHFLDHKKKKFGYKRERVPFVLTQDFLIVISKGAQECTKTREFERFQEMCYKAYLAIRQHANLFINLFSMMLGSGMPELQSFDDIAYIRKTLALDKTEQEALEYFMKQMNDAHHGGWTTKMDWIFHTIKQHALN
Procedure, shortened: as §1

PIK3CA(E545A) = target: T24, PIK3CA(E545A) (Homo sapiens, UniProt P42336, E545A)
T24 construct: purchased Ambit (DiscoverX) KINOMEscan; Cerep
T24 sequence (P42336 whole entry E545A): as the sequence (P42336 whole entry) above, with E545A counted along it
Procedure, shortened: as §1

PIM3 = target: T25, PIM3 (Homo sapiens, UniProt Q86V86)
T25 construct: purchased Ambit (DiscoverX) KINOMEscan; Cerep
Procedure, shortened: as §1

RIOK2 = target: T26, RIOK2 (Homo sapiens, UniProt Q9BVS4)
T26 construct: purchased Ambit (DiscoverX) KINOMEscan; Cerep
Procedure, shortened: as §1

RIPK1 = target: T27, RIPK1 (Homo sapiens, UniProt Q13546)
T27 construct: purchased Ambit (DiscoverX) KINOMEscan; Cerep
T27 sequence (Q13546 whole entry): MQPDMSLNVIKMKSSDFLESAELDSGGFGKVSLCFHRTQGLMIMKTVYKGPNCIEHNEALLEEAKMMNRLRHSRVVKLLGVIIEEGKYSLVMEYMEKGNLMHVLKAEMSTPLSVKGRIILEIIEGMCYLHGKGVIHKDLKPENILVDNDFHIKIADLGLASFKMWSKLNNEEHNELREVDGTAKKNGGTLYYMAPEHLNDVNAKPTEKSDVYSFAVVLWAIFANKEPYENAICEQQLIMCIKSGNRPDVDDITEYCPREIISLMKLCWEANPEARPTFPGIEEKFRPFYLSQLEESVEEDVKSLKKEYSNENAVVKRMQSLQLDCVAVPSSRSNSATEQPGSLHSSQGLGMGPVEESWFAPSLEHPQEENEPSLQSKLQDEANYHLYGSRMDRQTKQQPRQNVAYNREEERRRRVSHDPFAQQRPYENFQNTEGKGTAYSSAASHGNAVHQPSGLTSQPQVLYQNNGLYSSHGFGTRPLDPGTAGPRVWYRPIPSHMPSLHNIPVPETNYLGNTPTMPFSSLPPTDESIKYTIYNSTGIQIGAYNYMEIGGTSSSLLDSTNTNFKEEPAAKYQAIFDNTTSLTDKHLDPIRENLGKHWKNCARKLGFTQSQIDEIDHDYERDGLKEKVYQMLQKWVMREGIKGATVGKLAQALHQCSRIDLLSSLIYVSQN
Procedure, shortened: as §1

STK39 = target: T28, STK39 (Homo sapiens, UniProt Q9UEW8)
T28 construct: purchased Ambit (DiscoverX) KINOMEscan; Cerep
Procedure, shortened: as §1

TAOK3 = target: T29, TAOK3 (Homo sapiens, UniProt Q9H2K8)
T29 construct: purchased Ambit (DiscoverX) KINOMEscan; Cerep
Procedure, shortened: as §1

TRKa = target: T30, TRKa (Homo sapiens, UniProt P04629)
T30 construct: purchased Ambit (DiscoverX) KINOMEscan; Cerep
Procedure, shortened: as §1

[3] = target: T31, TYK2(JHdomain-speudokinase) (Homo sapiens, UniProt P29597)
T31 construct: TYK2(JHdomain-speudokinase); purchased Ambit (DiscoverX) KINOMEscan; Cerep
Procedure, shortened: as §1

ULK3 = target: T32, ULK3 (Homo sapiens, UniProt Q6PHR2)
T32 construct: purchased Ambit (DiscoverX) KINOMEscan; Cerep
Procedure, shortened: as §1

CCCCN1CCN(C(=N)c2cccc(NC(=O)Nc3ccc(S(=O)(=O)NCc4ccc(S(N)(=O)=O)cc4)cc3)c2)CC1 [SC81458, 4-(3-(3-((4-butylpiperazin-1-yl)(imino)methyl)phenyl)ureido)-N-(4-sulfamoylbenzyl) benzenesulfonamide]
remaining binding at 10 µM (ADCK4): 100%
remaining binding at 10 µM (ALK): 100%
remaining binding at 10 µM (BMPR1b): 85%
remaining binding at 10 µM (CAMK1): 82%
remaining binding at 10 µM (CDK7): 100%
remaining binding at 10 µM (EGFR(E46-A750del)): 96%
remaining binding at 10 µM [1]: 86%
remaining binding at 10 µM (EGFR(S752-I759del)): 99%
remaining binding at 10 µM (EPHB1): 84%
remaining binding at 10 µM (ERBB3): 81%
remaining binding at 10 µM (FLT3(D835Y)): 89%
remaining binding at 10 µM (GRK4): 92%
remaining binding at 10 µM (GRK7): 100%
remaining binding at 10 µM (GSK3a): 100%
remaining binding at 10 µM (IKK-beta): 100%
remaining binding at 10 µM [2]: 89%
remaining binding at 10 µM (JNK2): 97%
remaining binding at 10 µM (LTK): 100%
remaining binding at 10 µM (MAP3K1): 100%
remaining binding at 10 µM (MAP3K3): 100%
remaining binding at 10 µM (MRCKA): 100%
remaining binding at 10 µM (MRCKB): 99%
remaining binding at 10 µM (PIK3CA): 83%
remaining binding at 10 µM (PIK3CA(E545A)): 100%
remaining binding at 10 µM (PIM3): 100%
remaining binding at 10 µM (RIOK2): 98%
remaining binding at 10 µM (RIPK1): 100%
remaining binding at 10 µM (STK39): 57%
remaining binding at 10 µM (TAOK3): 100%
remaining binding at 10 µM (TRKa): 100%
remaining binding at 10 µM [3]: 93%
remaining binding at 10 µM (ULK3): 73%
